Assay results reported in PubChem BioAssay AID1963875 (Molecular Pharmacology Branch, DTP, NCI, 2024).

Tested on: KRAS-mutant PDC complex spheroid viability
Assay: Anticancer human tumor 186277-243-T-J2-PDC patient-derived colon adenocarcinoma cell line growth inhibition [KRAS2]
Conditions: for IC50: curve of first compound; for viability, T/C: stronger effect = lower value
In short: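 KRAS-mutant tumor cells were grown as spheroids with HUVEC endothelial cells and human MSCs as stroma. Targeted agents were tested alone and with KRAS pathway inhibitors. Doses started at or near clinical Cmax, or 10 microM, descending half-log.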

[1] = second compound 0.1 µM, first compound 0.0316 µM
[2] = second compound 0.1 µM, first compound 0.1 µM
[3] = second compound 0.1 µM, first compound 0.316 µM
[4] = second compound 0.1 µM, first compound 1 µM
[5] = second compound 0.1 µM, first compound 3.16 µM
[6] = second compound 0.1 µM, first compound 10 µM
[7] = second compound 0.316 µM, first compound 0.0316 µM
[8] = second compound 0.316 µM, first compound 0.1 µM
[9] = second compound 0.316 µM, first compound 0.316 µM
[10] = second compound 0.316 µM, first compound 1 µM
[11] = second compound 0.316 µM, first compound 3.16 µM
[12] = second compound 0.316 µM, first compound 10 µM
[13] = second compound 1 µM, first compound 0.0316 µM
[14] = second compound 1 µM, first compound 0.1 µM
[15] = second compound 1 µM, first compound 0.316 µM
[16] = second compound 1 µM, first compound 1 µM
[17] = second compound 1 µM, first compound 3.16 µM
[18] = second compound 1 µM, first compound 10 µM
[19] = second compound 3.16 µM, first compound 0.0316 µM
[20] = second compound 3.16 µM, first compound 0.1 µM
[21] = second compound 3.16 µM, first compound 0.316 µM
[22] = second compound 3.16 µM, first compound 1 µM
[23] = second compound 3.16 µM, first compound 3.16 µM
[24] = second compound 3.16 µM, first compound 10 µM
[25] = second compound 10 µM, first compound 0.0316 µM
[26] = second compound 10 µM, first compound 0.1 µM
[27] = second compound 10 µM, first compound 0.316 µM
[28] = second compound 10 µM, first compound 1 µM
[29] = second compound 10 µM, first compound 3.16 µM
[30] = second compound 10 µM, first compound 10 µM
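Throughout, for viability, T/C: viability read after seven days of compound exposure; 100% = DMSO vehicle-treated spheroids so lower means less viable.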

SMILES	IC50 (second compound 0.1 µM) [nM]	IC50 (second compound 0.316 µM) [nM]	IC50 (second compound 1 µM) [nM]	IC50 (second compound 3.16 µM) [nM]	viability, T/C [1] [%]	viability, T/C [2] [%]	viability, T/C [3] [%]	viability, T/C [4] [%]	viability, T/C [5] [%]	viability, T/C [7] [%]	viability, T/C [8] [%]	viability, T/C [9] [%]	viability, T/C [10] [%]	viability, T/C [11] [%]	viability, T/C [13] [%]	viability, T/C [14] [%]	viability, T/C [15] [%]	viability, T/C [16] [%]	viability, T/C [17] [%]	viability, T/C [19] [%]	further results
Cn1nccc1Nc1nccc(-c2cc3c(s2)C(C)(C)N(CCN2CCOCC2)C3=O)n1 + COc1cc2nc(C)nc(NC(C)c3cc(N)cc(C(F)(F)F)c3)c2cc1OC1CCOC1	266	301	220	193	90.7	105	41.4	9.64	5.24	93.1	97.9	48	9	4.51	92.2	100	28.7	6.92	3.64	91.6	IC50 (second compound 10 µM): 75.7 nM; viability, T/C [6]: 5.34%; viability, T/C [12]: 4.67%; viability, T/C [18]: 4.79%; viability, T/C [20]: 85.6%; viability, T/C [21]: 23.2%; viability, T/C [22]: 7.66%; viability, T/C [23]: 4.43%; viability, T/C [24]: 4.37%; viability, T/C [25]: 86.1%; viability, T/C [26]: 38.5%; viability, T/C [27]: 4.06%; viability, T/C [28]: 1.74%; viability, T/C [29]: 0.34%; viability, T/C [30]: 0.22%
CC(=O)OC12COC1CC(O)C1(C)C(=O)C(O)C3=C(C)C(OC(=O)C(O)C(NC(=O)OC(C)(C)C)c4ccccc4)CC(O)(C(OC(=O)c4ccccc4)C21)C3(C)C (stereo not given) + C=CC(=O)N1CCN(c2nc(OCC3CCCN3C)nc3c2CCN(c2cccc4cccc(C)c24)C3)CC1CC#N	< 10	< 10	< 10	< 10	3.47	3.22	2.86	3.09	3.2	3.26	3.24	2.85	2.97	3.26	4.12	3.41	3	3.17	2.9	3.92	IC50 (second compound 0.0316 µM): < 10 nM; viability, T/C (second compound 0.0316 µM, first compound 0.01 µM): 5.4%; viability, T/C (second compound 0.0316 µM, first compound 0.0316 µM): 3.51%; viability, T/C (second compound 0.0316 µM, first compound 0.1 µM): 2.98%; viability, T/C (second compound 0.0316 µM, first compound 0.316 µM): 2.96%; viability, T/C (second compound 0.0316 µM, first compound 1 µM): 3.29%; viability, T/C (second compound 0.0316 µM, first compound 3.16 µM): 3.21%; viability, T/C (second compound 0.1 µM, first compound 0.01 µM): 4.93%; viability, T/C (second compound 0.316 µM, first compound 0.01 µM): 3.71%; viability, T/C (second compound 1 µM, first compound 0.01 µM): 4.4%; viability, T/C (second compound 3.16 µM, first compound 0.01 µM): 4.54%; viability, T/C [20]: 3.17%; viability, T/C [21]: 3.26%; viability, T/C [22]: 3.28%; viability, T/C [23]: 3.25%
CC(C)NCC(C(=O)N1CCN(c2ncnc3c2C(C)CC3O)CC1)c1ccc(Cl)cc1 (stereo not given) + COc1cc2nc(C)nc(NC(C)c3cc(N)cc(C(F)(F)F)c3)c2cc1OC1CCOC1	414	305	359	571	103	83.4	54.8	34.8	3.87	100	85.4	47.2	21.6	1.85	98.2	87.8	50.2	24.6	1.87	107	IC50 (second compound 10 µM): 36.4 nM; viability, T/C [6]: 7.18%; viability, T/C [12]: 7.05%; viability, T/C [18]: 0.23%; viability, T/C [20]: 90.4%; viability, T/C [21]: 96.5%; viability, T/C [22]: 5.81%; viability, T/C [23]: 0.99%; viability, T/C [24]: 8.22%; viability, T/C [25]: 52.4%; viability, T/C [26]: 34.7%; viability, T/C [27]: 18.7%; viability, T/C [28]: 0.82%; viability, T/C [29]: 0.18%; viability, T/C [30]: 0.39%
